Assay results: US11512079B2, “Heterocycle substituted pyridine derivative antifungal agents” (Amplyx Pharmaceuticals, Inc., priority 2017, dated 2022)
Converted amounts (≈) assume the structure as drawn. Where a name gives a salt, the structure may show the parent alone.

Assays:
Format in all cases: cell-based
[1] = tested on: Aspergillus fumigatus MYA3626; assay: In vitro antifungal assay (Example IX), microdilution broth, MEC; details: minimum effective concentration (shortening of hyphae), 35° C., 40-48 h, RPMI1640
Description: (§1) Measurement of antifungal activity: […] Candida albicans 90028, Aspergillus fumigatus MYA3626, Rhizomucor pusillus 46342 and Cryptococcus neoformans […] strains were obtained from American Type Culture Collection (ATCC). […] (A. fumigatus) and 35° C. (R. pusillus). Water containing 1% Tween was directly added to the agar plate and gently agitated to wet and remove the Aspergillus conidia. For R. pusillus, water was added to the surface and gently massaged to wet and remove the spores. For both species, the conidia or spores and mycelial fragments were collected, followed by removal of mycelium, conidiophores and large clumps of conidia/spores. The resulting spore suspension was counted and diluted into RPMI1640 medium to adjust to a final suspension of 1-2×10^4 spores/mL. The suspension was used in the MEC measurement as described below. […] The compounds were weighed and DMSO was added to prepare a 10 mg/mL stock. The solutions were mixed by vortexing and sonication at 37° C. for 5-10 mins. The resulting solutions were sterile filtered using a PTFE filter, and aliquoted (12 μL or as needed) and stored at -20° C. Intermediate compound dilutions were prepared in sterile polypropylene tubes in 100% DMSO. […] This was validated by thorough mixing and reading at 600 nm on a microplate reader. The minimum concentration that led to shortening of hyphae as compared to hyphal growth in DMSO control wells was determined as the minimum effective concentration (MEC) for A. fumigatus and R. pusillus (as read for echinocandins). The use of the MIC and MEC endpoints against yeasts and molds, respectively has been described by Pfaller M A, Duncanson F, Messer S A, Moet G J, Jones […]. Antimicrob Agents Chemother. 2011. 55(11):5155-8. In vitro activity of a novel broad-spectrum antifungal, […], tested against Aspergillus spp. determined by CLSI and EUCAST broth microdilution methods. Results are shown in Table 2, and the letters indicate the following ranges in μg/mL: […]

[2] = tested on: Rhizomucor pusillus 46342; assay: as above; details: minimum effective concentration (shortening of hyphae), 35° C., 40-48 h, RPMI1640
Description: as §1

Candida albicans 90028 = assay: In vitro antifungal assay (Example IX), microdilution broth, MIC; details: minimum inhibitory concentration (≥50% inhibition), 35° C., 40-48 h, RPMI1640
Description: Measurement of antifungal activity: Antifungal activity of the compounds was evaluated in a microdilution broth assay as per Clinical and Laboratory Standard Institute methodology for yeast (for Candida and Cryptococcus) (1) and molds (for Aspergillus and Rhizomucor) (2). Candida albicans 90028, Aspergillus fumigatus MYA3626, Rhizomucor pusillus 46342 and Cryptococcus neoformans H99 strains were obtained from American Type Culture Collection (ATCC).
Preparation of Fungal Suspension. C. albicans 90028 and C. neoformans H99 strains were streaked from frozen stocks at −80° C. onto Sabouraud Dextrose Agar (SDA) plates. These were allowed to grow for 24 h (C. albicans) and 48 h (C. neoformans) at 35° C. before using them in the assay. 5-6 individual colonies were picked and diluted into sterile water to obtain a fungal suspension. The cell density of the suspension was determined and the culture diluted with RPMI1640 medium to obtain a fungal suspension of 2.5×10^3 cells/mL. The suspension was used in the MIC measurement as described below.
Preparation of Compound Stocks and Intermediate Dilutions: The compounds were weighed and DMSO was added to prepare a 10 mg/mL stock. The solutions were mixed by vortexing and sonication at 37° C. for 5-10 mins. The resulting solutions were sterile filtered using a PTFE filter, and aliquoted (12 μL or as needed) and stored at −20° C. Intermediate compound dilutions were prepared in sterile polypropylene tubes in 100% DMSO. The compound stock solution was first diluted in DMSO to obtain a concentration of […] to 0.19 μg/mL.
MIC/MEC Measurement: 99 μL 1 of the fungal suspension in RPMI1640 prepared as above was added to each well of a 96-well round bottom assay plate. 1 μL of the intermediate compound dilutions (200-0.19 μg/mL) were added to wells of the plate. This led to a 100-fold dilution of the intermediate dilutions resulting in a final compound concentration of 2-0.0019 μg/mL in the plate. 1 μL of DMSO was added to “No drug” control wells. The solutions were mixed by shaking on a plate shaker for 10 mins and plates incubated at 35° C. for 40-48 h (C. albicans, A. fumigatus, R. pusillus) and 72 h (Cryptococcus). […] This was validated by thorough mixing and reading at 600 nm on a microplate reader. The minimum concentration that led to shortening of hyphae as compared to hyphal growth in DMSO control wells was determined as the minimum effective concentration (MEC) for A. fumigatus and R. pusillus (as read for echinocandins). The use of the MIC and MEC endpoints against yeasts and molds, respectively has been described by Pfaller M A, Duncanson F, Messer S A, Moet G J, Jones R N, Castanheira M. Antimicrob Agents Chemother. 2011. 55(11):5155-8. In vitro activity of a novel broad-spectrum antifungal, E1210, tested against Aspergillus spp. determined by CLSI and EUCAST broth microdilution methods. Results are shown in Table 2, and the letters indicate the following ranges in μg/mL: […]

| Compound | minimal effective concentration [1] [µg/mL] | minimal effective concentration [2] [µg/mL] | MIC (Candida albicans 90028) [µg/mL] |
| --- | --- | --- | --- |
| Nc1ncccc1-c1cc(Cc2ccc(OCc3cccc(Cl)c3)nc2)no1 [compound 85, 3-(3-((6-((3-chlorobenzyl)oxy)pyridin-3-yl)methyl)isoxazol-5-yl)pyridin-2-amine] | 0.01 to 0.1 | 0.1 to 1 | 0.01 to 0.1 (≈ 0.0255 to 0.255 µM) |
| Nc1ncccc1-c1cc(Cc2ccnc(OCc3cccc(F)c3)c2)no1 [compound 86, 3-(3-((2-((3-fluorobenzyl)oxy)pyridin-4-yl)methyl)isoxazol-5-yl)pyridin-2-amine] | 0.01 to 0.1 | > 1 | 0.01 to 0.1 (≈ 0.0266 to 0.266 µM) |
| Nc1ncccc1-c1cc(Cc2ccc(OCc3cc(F)cc(Cl)c3)nc2)no1 [compound 87, 3-(3-((6-((3-chloro-5-fluorobenzyl)oxy)pyridin-3-yl)methyl)isoxazol-5-yl)pyridin-2-amine] | 0.01 to 0.1 | > 1 | 0.1 to 1 (≈ 0.243 to 2.43 µM) |
| Nc1ncccc1-c1cc(Cc2ccnc(Oc3ccccc3)c2)no1 [compound 88] | 0.1 to 1 | > 1 | 0.1 to 1 (≈ 0.29 to 2.9 µM) |
| Nc1ncccc1-c1cc(Cc2cccc(OCc3cccc(F)c3)n2)no1 [compound 89, 3-(3-((6-((3-fluorobenzyl)oxy)pyridin-2-yl)methyl)isoxazol-5-yl)pyridin-2-amine] | > 1 | > 1 | > 1 |
| Nc1ncccc1-c1cc(Cc2cccc(OCc3ccccc3F)n2)no1 [compound 90, 3-(3-((6-((2-fluorobenzyl)oxy)pyridin-2-yl)methyl)isoxazol-5-yl)pyridin-2-amine] | > 1 | > 1 | 0.1 to 1 (≈ 0.266 to 2.66 µM) |
| Nc1ncccc1-c1cc(Cc2ccc(CNCc3ccn[nH]3)cc2)no1 [compound 93, 3-(3-(4-((((1H-pyrazol-5-yl)methyl)amino)methyl)benzyl)isoxazol-5-yl)pyridin-2-amine] | > 1 | > 1 | > 1 |
| N#CCNCc1ccc(Cc2cc(-c3cccnc3N)on2)cc1 [compound 94, 2-((4-((5-(2-aminopyridin-3-yl)isoxazol-3-yl)methyl)benzyl)amino)acetonitrile] | > 1 | > 1 | > 1 |
| Nc1ncccc1-c1cc(Cc2ccc(CNCC3CCOCC3)cc2)no1 [compound 95, 3-(3-(4-((((tetrahydro-2H-pyran-4-yl)methyl)amino)methyl)benzyl)isoxazol-5-yl)pyridin-2-amine] | > 1 | > 1 | > 1 |
| Nc1ncccc1-c1cc(Cc2ccc(CNC3CCCCNC3=O)cc2)no1 (stereo not drawn) [compound 96, 3-((4-((5-(2-aminopyridin-3-yl)isoxazol-3-yl)methyl)benzyl)amino)azepan-2-one] | > 1 | > 1 | > 1 |
| C=Cc1ccc(Cc2cc(-c3cccnc3N)on2)cc1 [compound 97, 3-(3-(4-Vinylbenzyl)isoxazol-5-yl)pyridin-2-amine] | 0.1 to 1 | > 1 | > 1 |
| Nc1ncccc1-c1cc(Cc2ccc(CCSCCOC=O)cc2)no1 [compound 98, 2-((4-((5-(2-aminopyridin-3-yl)isoxazol-3-yl)methyl)phenethyl)thio)ethyl formate] | 0.1 to 1 | > 1 | 0.1 to 1 |
| Nc1ncccc1-c1cc(Cc2ccc(Cn3cc(CO)cn3)cc2)no1 [compound 102, (1-(4-((5-(2-aminopyridin-3-yl)isoxazol-3-yl)methyl)benzyl)-1H-pyrazol-4-yl)methanol] | > 1 | > 1 | > 1 |
| CCCc1cccc(OCc2ccc(Cc3cc(-c4cccnc4N)on3)cc2)c1 [compound 103, 3-(3-(4-((3-propylphenoxy)methyl)benzyl)isoxazol-5-yl)pyridin-2-amine] | 0.1 to 1 | > 1 | 0.1 to 1 (≈ 0.25 to 2.5 µM) |
| COc1ccc(COc2ccc(Cc3cc(-c4cccnc4N)on3)cc2)cc1 [compound 109, 3-(3-(4-((4-methoxybenzyl)oxy)benzyl)isoxazol-5-yl)pyridin-2-amine] | > 1 | > 1 | > 1 |
| N#Cc1ccc(COc2ccc(Cc3cc(-c4cccnc4N)on3)cc2)cc1 [compound 113, 4-((4-((5-(2-aminopyridin-3-yl)isoxazol-3-yl)methyl)phenoxy)methyl)benzonitrile] | 0.1 to 1 | > 1 | > 1 |
| Nc1ncccc1-c1cc(Cc2ccc(OCc3ccc(F)nc3)cc2)no1 [compound 116, 3-(3-(4-((6-fluoropyridin-3-yl)methoxy)benzyl)isoxazol-5-yl)pyridin-2-amine] | 0.01 to 0.1 | > 1 | > 1 |
| Nc1ncccc1-c1cc(Cc2ccc(Oc3c[n+]([O-])ccn3)cc2)no1 [compound 119, 3-(4-((5-(2-aminopyridin-3-yl)isoxazol-3-yl)methyl)phenoxy)pyrazine 1-oxide] | > 1 | > 1 | > 1 |
| Nc1ncccc1-c1cc(Cc2ccc(Cn3ccccc3=O)cc2)no1 [compound 126, 1-(4-((5-(2-aminopyridin-3-yl)isoxazol-3-yl)methyl)benzyl)pyridin-2(1H)-one] | > 1 | > 1 | > 1 |
| Nc1ncccc1-c1cc(Cc2ccc(OCc3ccccc3C(F)(F)F)nc2)no1 [compound 128, 3-(3-((6-((2-(trifluoromethyl)benzyl)oxy)pyridin-3-yl)methyl)isoxazol-5-yl)pyridin-2-amine] | 0.1 to 1 | > 1 | > 1 |
| Nc1ncccc1-c1cc(Cc2ccc(OC3CCCc4cccnc43)nc2)no1 (stereo not drawn) [compound 129, 3-(3-((6-((5,6,7,8-tetrahydroquinolin-8-yl)oxy)pyridin-3-yl)methyl)isoxazol-5-yl)pyridin-2-amine] | > 1 | > 1 | > 1 |
| Nc1ccc(-c2cc(Cc3ccc(OCc4nccs4)cc3)no2)c(N)n1 [compound 133, 3-(3-(4-(thiazol-2-ylmethoxy)benzyl)isoxazol-5-yl)pyridine-2,6-diamine] | 0.1 to 1 | 0.1 to 1 | 0.1 to 1 (≈ 0.264 to 2.64 µM) |
